Source: patent US12595239B2, “Substituted isoxazoline derivatives” (BASF SE, priority 2021, dated 2026)

Legend:
Type in all cases: in vivo
[1] = test system: Plutella xylostella; assay: B.6 Diamond Back Moth, cabbage leaf disc dip test; settings: foliar, 3rd instar larvae, 72 hours after treatment, read-out: mortality in comparison with untreated controls
Experimental: The active compound was dissolved at the desired concentration in a mixture of 1:1 (vol:vol) distilled water:acetone. Surfactant (Kinetic) was added at a rate of 0.01% (vol/vol). The test solution was prepared at the day of use. Cabbage leaf discs (60 mm in diameter) were dipped in test solution and air-dried. Treated leaves were placed in petri dishes lined with moistened filter paper and inoculated with ten 3rd instar larvae. Mortality was recorded 72 hours after treatment. Feeding damages were also recorded using a scale of 0-100%.

[2] = test system: Dichromothrips corbetti; assay: B.7 Orchid Thrips, floral-immersion test; settings: adult thrips, 72 hours after treatment, read-out: mortality in comparison with untreated controls
Experimental: Dichromothrips corbetti adults used for bioassay were obtained from a colony maintained continuously under laboratory conditions. For testing purposes, the test compound was diluted in a 1:1 mixture of acetone:water (vol:vol), plus Kinetic at a rate of 0.01% v/v.
Thrips potency of each compound was evaluated by using a floral-immersion technique. Each orchid petal was dipped into treatment solution and allowed to dry in Petri dishes. Treated petals were placed into individual re-sealable plastic along with about 20 adult thrips. All test arenas were held under dark condition and a temperature of about 28° C. for duration of the assay. The percent mortality was recorded 72 hours after treatment.

[3] = test system: Anthonomus grandis; assay: B.1 Boll weevil (Anthonomus grandis), 96-well microtiter plate diet test; settings: 120 h, egg and larval mortality, 5 days, read-out: mortality in comparison with untreated controls
Experimental: For evaluating control of boll weevil, the test unit consisted of 96-well-microtiter plates containing an insect diet and 5-10 A. grandis eggs.
The compounds were formulated using a solution containing 75% v/v water and 25% v/v DMSO. Different concentrations of formulated compounds were sprayed onto the insect diet at 5 μl, using a custom-built micro atomizer, at two replications.
After application, microtiter plates were incubated at about 25±1° C. and about 75±5% relative humidity for 5 days. Egg and larval mortality were then visually assessed.

[4] = test system: Spodoptera eridania; assay: B.11 Southern Armyworm 2nd instar larvae, lima bean foliar spray test; settings: 96 h, 4 days after treatment, read-out: mortality in comparison with untreated controls
Experimental: The active compounds were formulated by a Tecan liquid handler in 100% cyclohexanone as a 10′000 ppm solution supplied in tubes. The 10′000 ppm solution was serially diluted in 100% cyclohexanone to make interim solutions. These served as stock solutions for which final dilutions were made by the Tecan in 50% acetone:50% water (v/v) into 10 or 20 ml glass vials. A nonionic surfactant (Kinetic®) was included in the solution at a volume of 0.01% (v/v). The vials were then inserted into an automated electrostatic sprayer equipped with an atomizing nozzle for application to plants/insects. Lima bean plants (variety Sieva) were grown 2 plants to a pot and selected for treatment at the 1st true leaf stage. Test solutions were sprayed onto the foliage by an automated electrostatic plant sprayer equipped with an atomizing spray nozzle. The plants were dried in the sprayer fume hood and then removed from the sprayer. Each pot was placed into perforated plastic bags with a zip closure. Ten to 11 armyworm larvae were placed into the bag and the bags zipped closed. Test plants were maintained in a growth room at about 25° C. and about 20-40% relative humidity for 4 days, avoiding direct exposure to fluorescent light (14:10 light:dark photo-period) to prevent trapping of heat inside the bags. Mortality and reduced feeding were assessed 4 days after treatment, compared to untreated control plants.

[5] = test system: Bemisia argentifolii; assay: B.12 Silverleaf Whitefly (adults), cotton plant spray test; settings: 72 h, 3 days after treatment, read-out: mortality in comparison with untreated controls
Experimental: The active compounds were formulated by a Tecan liquid handler in 100% cyclohexanone as a 10,000-ppm solution supplied in tubes. The 10,000-ppm solution was serially diluted in 100% cyclohexanone to make interim solutions. These served as stock solutions for which final dilutions were made by the Tecan in 50% acetone:50% water (v/v) into 5 or 10 ml glass vials. A nonionic surfactant (Kinetic®) was included in the solution at a volume of 0.01% (v/v). The vials were then inserted into an automated electrostatic sprayer equipped with an atomizing nozzle for application to plants/insects. Cotton plants at the cotyledon stage (one plant per pot) were sprayed by an automated electrostatic plant sprayer equipped with an atomizing spray nozzle. The plants were dried in the sprayer fume hood and then removed from the sprayer. Each pot was placed into a plastic cup and about 10 to 12 whitefly adults (approximately 3-5 days old) were introduced. The insects were collected using an aspirator and a nontoxic Tygon® tubing connected to a barrier pipette tip. The tip, containing the collected insects, was then gently inserted into the soil containing the treated plant, allowing insects to crawl out of the tip to reach the foliage for feeding. Cups were covered with a reusable screened lid. Test plants were maintained in a growth room at about 25° C. and about 20-40% relative humidity for 3 days, avoiding direct exposure to fluorescent light (14:10 light:dark photoperiod) to prevent trapping of heat inside the cup. Mortality was assessed 3 days after treatment, compared to untreated control plants.

[6] = test system: Myzus persicae; assay: B.3 Green Peach Aphid (mixed life stages), systemic artificial diet test; settings: 72 h, treated aphid diet, 3 days, read-out: mortality in comparison with untreated controls
Source text: For evaluating control of Green Peach Aphid through systemic means the test unit consisted of 96-well-microtiter plates containing liquid artificial diet under an artificial membrane. The compounds were formulated using a solution containing 75% v/v water and 25% v/v DMSO. Different concentrations of formulated compounds were pipetted into the aphid diet, using a custom-built pipette, at two replications. After application, 5-8 adult aphids were placed on the artificial membrane inside the microtiter plate wells. The aphids were then allowed to suck on the treated aphid diet and incubated at about 23±1° C. and about 50±5% relative humidity for 3 days. Aphid mortality and fecundity was then visually assessed.

[7] = test system: Heliothis virescens; assay: B.4 Tobacco Budworm, microtiter plate diet test; settings: 120 h, egg and larval mortality, 5 days, read-out: mortality in comparison with untreated controls
Experimental: For evaluating control of Tobacco Budworm, the test unit consisted of 96-well-microtiter plates containing an insect diet and 15-25 H. virescens eggs. The compounds were formulated using a solution containing 75% v/v water and 25% v/v DMSO. Different concentrations of formulated compounds were sprayed onto the insect diet at 10 μl, using a custom-built micro atomizer, at two replications. After application, microtiter plates were incubated at about 28±1° C. and about 80±5% relative humidity for 5 days. Egg and larval mortality was then visually assessed.

[8] = test system: Aedes aegypti; assay: whole plant or invertebrate; settings: 48 h, larval mortality, 2 days, read-out: mortality in comparison with untreated controls
Experimental: For evaluating control of Yellow Fever Mosquito, the test unit consisted of 96-well-microtiter plates containing 200 μl of tap water per well and 5-15 freshly hatched A. aegypti larvae. The active compounds were formulated using a solution containing 75% (v/v) water and 25% (v/v) DMSO. Different concentrations of formulated compounds or mixtures were sprayed onto the insect diet at 2.5 μl, using a custom-built micro atomizer, at two replications.
After application, microtiter plates were incubated at 28±1° C., 80±5% RH for 2 days. Larval mortality was then visually assessed.

O=C(Nc1ccc(F)c(NC(=O)C(F)F)c1F)c1cc(NC2=NOC(c3cc(Cl)cc(Cl)c3)(C(F)(F)F)C2)ccc1Cl (stereo not shown) [I-6, 2-chloro-5-[[5-(3,5-dichlorophenyl)-5-(trifluoromethyl)-4H-isoxazol-3-yl]amino]-N-[3-[(2,2-difluoroacetyl)amino]-2,4-difluoro-phenyl]benzamide]
≥ 75%: mortality at 300 ppm [1] | mortality at 300 ppm [2]

N#CC1(NC(=O)c2c(F)ccc(NC3=NOC(c4cc(Cl)cc(Cl)c4)(C(F)(F)F)C3)c2F)CC1 (stereo not shown) [I-30, N-(1-cyanocyclopropyl)-3-[[5-(3,5-dichlorophenyl)-5-(trifluoromethyl)-4H-isoxazol-3-yl]amino]-2,6-difluoro-benzamide]
≥ 75%: mortality at 300 ppm [1] | mortality at 2500 ppm [3] | mortality at 300 ppm [4] | mortality at 300 ppm [2]

O=C(NC1CN(S(=O)(=O)C(F)F)C1)c1cc(NC2=NOC(c3cc(Cl)c(F)c(Cl)c3)(C(F)(F)F)C2)ccc1Cl (stereo not shown) [I-41, 2-chloro-5-[[5-(3,5-dichloro-4-fluoro-phenyl)-5-(trifluoromethyl)-4H-isoxazol-3-yl]amino]-N-[1-(difluoromethylsulfonyl)azetidin-3-yl]benzamide]
≥ 75%: mortality at 300 ppm [1] | mortality at 300 ppm [4] | mortality at 300 ppm [2]

O=C(Nc1ccc(F)cc1F)c1cccc(NC2=NOC(c3cc(Cl)cc(Cl)c3)(C(F)(F)F)C2)c1F (stereo not shown) [I-48, 3-[[5-(3,5-dichlorophenyl)-5-(trifluoromethyl)-4H-isoxazol-3-yl]amino]-N-(2,4-difluoro-phenyl)-2-fluoro-benzamide]
≥ 75%: mortality at 300 ppm [1] | mortality at 300 ppm [4] | mortality at 300 ppm [2]

CC(C)(C#N)NC(=O)c1cc(NC2=NOC(c3cc(Cl)c(F)c(Cl)c3)(C(F)(F)F)C2)ccc1Cl (stereo not shown) [I-58, 2-chloro-N-(1-cyano-1-methyl-ethyl)-5-[[5-(3,5-dichloro-4-fluoro-phenyl)-5-(trifluoromethyl)-4H-isoxazol-3-yl]amino]benzamide]
≥ 75%: mortality at 300 ppm [1] | mortality at 300 ppm [4] | mortality at 300 ppm [2]

O=C(Nc1cnccc1F)c1cc(NC2=NOC(c3cc(Cl)c(F)c(Cl)c3)(C(F)(F)F)C2)ccc1Cl (stereo not shown) [I-62, 2-chloro-5-[[5-(3,5-dichloro-4-fluoro-phenyl)-5-(trifluoromethyl)-4H-isoxazol-3-yl]amino]-N-(4-fluoro-3-pyridyl)benzamide]
≥ 75%: mortality at 300 ppm [1] | mortality at 300 ppm [2]

CCOC(=O)N(C1=NOC(c2cc(Cl)cc(Cl)c2)(C(F)(F)F)C1)c1ccc(Cl)c(C(=O)N(C(=O)OCC)C2(C#N)CC2)c1 (stereo not shown) [I-100, ethyl N-[4-chloro-3-[(1-cyanocyclopropyl)-ethoxycarbonyl-carbamoyl]-phenyl]-N-[5-(3,5-dichlorophenyl)-5-(trifluoromethyl)-4H-isoxazol-3-yl]carbamate]
≥ 75%: mortality at 300 ppm [5] | mortality at 300 ppm [1] | mortality at 300 ppm [4] | mortality at 300 ppm [2]

O=C(N[C@@H]1CON(CC(F)(F)F)C1=O)c1cc(NC2=NOC(c3cc(Cl)c(F)c(Cl)c3)(C(F)(F)F)C2)ccc1Cl (stereo partly drawn) [I-114, 2-chloro-5-[[5-(3,5-dichloro-4-fluoro-phenyl)-5-(trifluoromethyl)-4H-isoxazol-3-yl]amino]-N-[(4R)-3-oxo-2-(2,2,2-trifluoroethyl)isoxazolidin-4-yl]benzamide]
≥ 75%: mortality at 300 ppm [5] | mortality at 300 ppm [1] | mortality at 300 ppm [4] | mortality at 300 ppm [2]

CN(C1=NOC(c2cc(Cl)cc(Cl)c2)(C(F)(F)F)C1)c1ccc(Cl)c(C(=O)NC2(c3cnn(C)c3)CC2)c1 (stereo not shown) [I-125, 2-chloro-5-[[5-(3,5-dichlorophenyl)-5-(trifluoromethyl)-4H-isoxazol-3-yl]-methyl-amino]-N-[1-(1-methylpyrazol-4-yl)cyclopropyl]benzamide]
≥ 75%: mortality at 2500 ppm [6] | mortality at 300 ppm [1] | mortality at 2500 ppm [3] | mortality at 2500 ppm [7] | mortality at 300 ppm [2]

O=C(Nc1ccc(F)cc1F)c1cc(NC2=NOC(c3cc(Cl)cc(Cl)c3)(C(F)(F)Cl)C2)ccc1Cl (stereo not shown) [I-131, 2-chloro-5-[[5-[chloro(difluoro)methyl]-5-(3,5-dichlorophenyl)-4H-isoxazol-3-yl]amino]-N-(2,4-difluorophenyl)benzamide]
≥ 75%: mortality at 2500 ppm [6] | mortality at 300 ppm [1] | mortality at 2500 ppm [3] | mortality at 2500 ppm [7] | mortality at 300 ppm [4] | mortality at 2500 ppm [8] | mortality at 300 ppm [2]

O=C(NC1(c2ccnnc2)CC1)c1cc(NC2=NOC(c3cc(Cl)cc(Cl)c3)(C(F)(F)F)C2)ccc1Cl (stereo not shown) [I-162, 2-chloro-5-[[5-(3,5-dichlorophenyl)-5-(trifluoromethyl)-4H-isoxazol-3-yl]amino]-N-(1-pyridazin-4-ylcyclopropyl)benzamide]
≥ 75%: mortality at 300 ppm [5] | mortality at 300 ppm [1] | mortality at 2500 ppm [3] | mortality at 300 ppm [4] | mortality at 2500 ppm [8]

N#CC1(NC(=O)c2cc(S(=O)(=O)C3=NOC(c4cc(Cl)cc(Cl)c4)(C(F)(F)F)C3)ccc2Cl)CC1 (stereo not shown) [II-3, 2-chloro-N-(1-cyanocyclopropyl)-5-[[5-(3,5-dichlorophenyl)-5-(trifluoromethyl)-4H-isoxazol-3-yl]sulfonyl]benzamide]
≥ 75%: mortality at 300 ppm [1]
